The values that follow come from US12404241B2 (Celgene Corporation, priority 2018, dated 2025).

Counter-ions that a name gives are not always drawn.

In this assay the target is T1, AR (Homo sapiens, UniProt P10275).
T1 construct: endogenous in cells; host or cells: VCaP cells
T1 sequence (P10275 1-920): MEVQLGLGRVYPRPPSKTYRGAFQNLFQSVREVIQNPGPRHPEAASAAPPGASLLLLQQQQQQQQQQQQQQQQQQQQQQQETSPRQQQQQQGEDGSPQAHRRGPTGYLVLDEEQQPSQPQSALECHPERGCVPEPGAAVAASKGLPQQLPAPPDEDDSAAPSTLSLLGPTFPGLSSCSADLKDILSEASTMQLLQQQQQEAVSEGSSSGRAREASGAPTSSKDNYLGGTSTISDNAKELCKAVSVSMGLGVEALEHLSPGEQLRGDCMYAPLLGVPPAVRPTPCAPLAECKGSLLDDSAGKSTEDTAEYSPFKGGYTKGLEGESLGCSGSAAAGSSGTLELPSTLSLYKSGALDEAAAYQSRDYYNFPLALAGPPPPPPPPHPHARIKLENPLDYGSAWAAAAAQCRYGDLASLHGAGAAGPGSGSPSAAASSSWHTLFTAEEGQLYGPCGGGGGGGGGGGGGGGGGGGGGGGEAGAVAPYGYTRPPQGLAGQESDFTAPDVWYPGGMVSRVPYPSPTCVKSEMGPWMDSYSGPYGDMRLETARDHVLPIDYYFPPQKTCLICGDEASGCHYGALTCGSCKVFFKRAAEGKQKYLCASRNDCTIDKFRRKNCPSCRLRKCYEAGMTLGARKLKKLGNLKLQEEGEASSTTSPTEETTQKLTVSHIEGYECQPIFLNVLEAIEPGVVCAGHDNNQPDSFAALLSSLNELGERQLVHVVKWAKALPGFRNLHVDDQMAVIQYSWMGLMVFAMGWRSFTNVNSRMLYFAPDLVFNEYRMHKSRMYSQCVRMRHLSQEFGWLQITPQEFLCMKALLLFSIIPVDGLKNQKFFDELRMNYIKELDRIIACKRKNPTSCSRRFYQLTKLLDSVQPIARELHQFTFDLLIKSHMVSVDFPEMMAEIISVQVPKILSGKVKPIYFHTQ
Description: VCAP AR Degradation Assay. The following applies: for Y (AR degradation efficiency, % of DMSO control): class symbols *; for DC50: class symbols A-C, read-out: DC50. In kind it is cell-based. The procedure, abridged:
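AR protein in lysates quantified by sandwich ELISA after 24 h exposure of VCaP cells at 37 °C to 10 concentrations (1:3 steps, 5 μM top, final). Four-parameter logistic fit of percent-of-DMSO levels gave DC50 (50% degradation), EC50 and minimal AR level Y.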

One may read the DC50 as the midpoint of the concentration-degradation curve. As for `CC(C)c1cc(N2C(=S)N(c3ccc(C#N)c(C(F)(F)F)c3)C(=O)C23CCC3)cnc1OCCN1C[C@@H](C)N(CC(=O)Nc2cc(C#N)cc(NC3CCC(=O)NC3=O)c2)C[C@H]1C` (stereo partly drawn) [Example 231, 2-((2R,5R)-4-(2-(5-(7-(4-cyano-3-(trifluoromethyl)phenyl)-8-oxo-6-thioxo-5,7-diazaspiro[3.4]octan-5-yl)-3-isopropylpyridin-2-yloxy)ethyl)-2,5-dimethylpiperazin-1-yl)-N-(3-cyano-5-(2,6-dioxopiperidin-3-ylamino)phenyl)acetamide], the “Y (AR degradation efficiency, % of DMSO control)” value was “* (0<Y<=25%)” and the DC50 lay within 100 to 500 nM.
The matching figures for `CCc1cc(N2C(=S)N(c3ccc(C#N)c(C(F)(F)F)c3)C(=O)C2(C)C)ccc1OCCN1CCN(CC(=O)Nc2cccc(NC3CCC(=O)NC3=O)c2)C[C@@H]1CO` (some centres unmarked) [Example 48]: “* (0<Y<=25%)” and below 100 nM.
With `N#Cc1ccc(N2C(=O)C3(CCC3)N(c3ccc(OCCN4CCN(CC(=O)Nc5cccc(NC6CCC(=O)NC6=O)c5)CC4)c(Cl)c3)C2=S)cc1C(F)(F)F` (centres unmarked) [Example 7, hydrochloride], the “Y (AR degradation efficiency, % of DMSO control)” value is “* (0<Y<=25%)” and the DC50 is below 100 nM.
In the case of `C[C@@H]1CN(CCCc2ccc(N3C(=S)N(c4ccc(C#N)c(C(F)(F)F)c4)C(=O)C3(C)C)cc2F)C[C@H](C)N1CC(=O)Nc1cccc(NC2CCC(=O)NC2=O)c1` (stereo partly drawn) [Example 287, 2-((2R,6S)-4-(3-(4-(3-(4-cyano-3-(trifluoromethyl)phenyl)-5,5-dimethyl-4-oxo-2-thioxoimidazolidin-1-yl)-2-fluorophenyl)propyl)-2,6-dimethylpiperazin-1-yl)-N-(3-(2,6-dioxopiperidin-3-ylamino)phenyl)acetamide], the “Y (AR degradation efficiency, % of DMSO control)” value was “* (0<Y<=25%)” and the DC50 was below 100 nM.
As for `CC1(C)C(=O)N(c2cnc(C#N)c(C(F)(F)F)c2)C(=S)N1c1ccc(OCCN2CCN(CC(=O)Nc3cc(Cl)cc(NC4CCC(=O)NC4=O)c3)CC2)c(C2CC2)c1` (centres unmarked) [Example 84, N-(3-chloro-5-(2,6-dioxopiperidin-3-ylamino)phenyl)-2-(4-(2-(4-(3-(6-cyano-5-(trifluoromethyl)pyridin-3-yl)-5,5-dimethyl-4-oxo-2-thioxoimidazolidin-1-yl)-2-cyclopropylphenoxy)ethyl)piperazin-1-yl)acetamide], the “Y (AR degradation efficiency, % of DMSO control)” value was “* (0<Y<=25%)” and the DC50 is below 100 nM.
The matching figures for `CCc1cc(N2C(=S)N(c3ccc(C#N)c(C(F)(F)F)c3)C(=O)C23CCC3)ccc1OCCN1CCN(CC(=O)Nc2cccc(NC3CCC(=O)NC3=O)c2)CC1` (centres unmarked) [Example 132, 2-(4-(2-(4-(7-(4-cyano-3-(trifluoromethyl)phenyl)-8-oxo-6-thioxo-5,7-diazaspiro[3.4]octan-5-yl)-2-ethylphenoxy)ethyl)piperazin-1-yl)-N-(3-(2,6-dioxopiperidin-3-ylamino)phenyl)acetamide]: “* (0<Y<=25%)” and below 100 nM.
`C[C@@H]1CN(CCOc2ccc(N3C(=S)N(c4cnc(C#N)c(C(F)(F)F)c4)C(=O)C34CCC4)cc2C2CC2)C[C@H](C)N1CC(=O)Nc1cc(F)cc(NC2CCC(=O)NC2=O)c1` (stereo partly drawn) [Example 218, 2-((2S,6R)-4-(2-(4-(7-(6-cyano-5-(trifluoromethyl)pyridin-3-yl)-8-oxo-6-thioxo-5,7-diazaspiro[3.4]octan-5-yl)-2-cyclopropylphenoxy)ethyl)-2,6-dimethylpiperazin-1-yl)-N-(3-(2,6-dioxopiperidin-3-ylamino)-5-fluorophenyl)acetamide]: the “Y (AR degradation efficiency, % of DMSO control)” value is on record as “* (0<Y<=25%)” and the DC50 is below 100 nM.
For `CCc1cc(N2C(=S)N(c3ccc(C#N)c(C(F)(F)F)c3)C(=O)C2(C)C)c(F)cc1OCCN1C[C@@H](C)N(CC(=O)Nc2cccc(NC3CCC(=O)NC3=O)c2)[C@@H](C)C1` (stereo partly drawn) [Example 247, 2-((2S,6R)-4-(2-(4-(3-(4-cyano-3-(trifluoromethyl)phenyl)-5,5-dimethyl-4-oxo-2-thioxoimidazolidin-1-yl)-2-ethyl-5-fluorophenoxy)ethyl)-2,6-dimethylpiperazin-1-yl)-N-(3-(2,6-dioxopiperidin-3-ylamino)phenyl)acetamide], the “Y (AR degradation efficiency, % of DMSO control)” value is on record as “* (0<Y<=25%)” and the DC50 is below 100 nM.
For the molecule `CCc1cc(N2C(=S)N(c3ccc(C#N)c(C(F)(F)F)c3)C(=O)C2(C)C)ccc1OCCN1C[C@@H](C)N(CC(=O)Nc2cc(Cl)cc(NC3CCC(=O)NC3=O)c2)C[C@@H]1C` (stereo partly drawn) [Example 123, N-(3-chloro-5-(2,6-dioxopiperidin-3-ylamino)phenyl)-2-((2R,5S)-4-(2-(4-(3-(4-cyano-3-(trifluoromethyl)phenyl)-5,5-dimethyl-4-oxo-2-thioxoimidazolidin-1-yl)-2-ethylphenoxy)ethyl)-2,5-dimethylpiperazin-1-yl)acetamide], the “Y (AR degradation efficiency, % of DMSO control)” value is on record as “* (0<Y<=25%)” and the 50% degradation concentration (DC50) is below 100 nM.
As for `CCc1cc(N2C(=S)N(c3ccc(C#N)c(C(F)(F)F)c3)C(=O)C2(C)C)ccc1OCCN1CCN(C(C)(C)C(=O)Nc2cc(Cl)cc(NC3CCC(=O)NC3=O)c2)CC1` (centres unmarked) [Example 133, N-(3-chloro-5-(2,6-dioxopiperidin-3-ylamino)phenyl)-2-(4-(2-(4-(3-(4-cyano-3-(trifluoromethyl)phenyl)-5,5-dimethyl-4-oxo-2-thioxoimidazolidin-1-yl)-2-ethylphenoxy)ethyl)piperazin-1-yl)-2-methylpropanamide], the “Y (AR degradation efficiency, % of DMSO control)” value is reported as “** (25%<Y<=35%)” and the DC50 was 100 to 500 nM.
For `CCc1cc(N2C(=S)N(c3cnc(C#N)c(C(F)(F)F)c3)C(=O)C2(C)C)ccc1OCCN1CCN(CC(=O)Nc2cc(Cl)cc(NC3CCC(=O)NC3=O)c2)[C@H](C)C1` (stereo partly drawn) [Example 145, N-(3-chloro-5-(2,6-dioxopiperidin-3-ylamino)phenyl)-2-((R)-4-(2-(4-(3-(6-cyano-5-(trifluoromethyl)pyridin-3-yl)-5,5-dimethyl-4-oxo-2-thioxoimidazolidin-1-yl)-2-ethylphenoxy)ethyl)-2-methylpiperazin-1-yl)acetamide], the “Y (AR degradation efficiency, % of DMSO control)” value is “* (0<Y<=25%)” and the DC50 is below 100 nM.
As to `CCc1cc(N2C(=S)N(c3ccc(C#N)c(C(F)(F)F)c3)C(=O)C23CCC3)ccc1OCCN1CCN(CC(=O)Nc2cc(Cl)cc(NC3CCC(=O)NC3=O)c2)[C@H](C)C1` (stereo partly drawn) [Example 103, N-(3-chloro-5-(2,6-dioxopiperidin-3-ylamino)phenyl)-2-((R)-4-(2-(4-(7-(4-cyano-3-(trifluoromethyl)phenyl)-8-oxo-6-thioxo-5,7-diazaspiro[3.4]octan-5-yl)-2-ethylphenoxy)ethyl)-2-methylpiperazin-1-yl)acetamide], the “Y (AR degradation efficiency, % of DMSO control)” value was “* (0<Y<=25%)” and the DC50 is below 100 nM.
`CCc1cc(N2C(=S)N(c3ccc(C#N)c(C(F)(F)F)c3)C(=O)C2(C)C)ccc1OCCN1CCN(CC(=O)Nc2cc(F)cc(NC3CCC(=O)NC3=O)c2)C(C)(C)C1` (centres unmarked) [Example 73, 2-(4-(2-(4-(3-(4-cyano-3-(trifluoromethyl)phenyl)-5,5-dimethyl-4-oxo-2-thioxoimidazolidin-1-yl)-2-ethylphenoxy)ethyl)-2,2-dimethylpiperazin-1-yl)-N-(3-(2,6-dioxopiperidin-3-ylamino)-5-fluorophenyl)acetamide]: the “Y (AR degradation efficiency, % of DMSO control)” value was “* (0<Y<=25%)” and the DC50 is below 100 nM.
